Results published in PMC10226046, “Prodrug Strategies for the Development of β-L-5-((E)-2-Bromovinyl)-1-((2S,4S)-2-(hydroxymethyl)-1,3-(dioxolane-4-yl))uracil (L-BHDU) against Varicella Zoster Virus (VZV)” (Journal of Medicinal Chemistry, 2023).
Where two headings read alike, the source gives them in different places.

Legend:
VZV-ORF57-Luc [1] = settings: for EC50: cell-free VZV-ORF57-Luc, ARPE-19 cells, 72 hpi, bioluminescence imaging
in vitro = settings: human
VZV-ORF57-Luc [2] = assay: microbe, parasite or virus in culture; settings: Human alphaherpesvirus 3, ARPE-19, cell-free VZV-ORF57-Luc, ARPE-19 cells, 72 hpi, bioluminescence imaging
[3] = Neutral red dye uptake cytotoxicity assay in ARPE-19 cells; settings: human
VZV = settings: cited from earlier work
VZV-ORF57-Luc [4] = assay: microbe, parasite or virus in culture; type: cell-based, Varicella zoster virus
VZV-ORF57-ΔTK = assay: microbe, parasite or virus in culture; type: cell-based, Varicella zoster virus
VZV-ORF57-ΔTS = assay: microbe, parasite or virus in culture; type: cell-based, Varicella zoster virus
VZV-ORF57-ΔTKTS = assay: microbe, parasite or virus in culture; type: cell-based, Varicella zoster virus
ARPE-19 cells = assay: Neutral red dye uptake cytotoxicity assay in ARPE-19 cells; settings: 72 h, neutral red assay
[5] = selectivity index = CC50/EC50, ARPE-19 cells
[6] = Human alphaherpesvirus 3, ARPE-19
[7] = cell-associated virus, ARPE-19 cells
[8] = cell-associated VZV-ORF57-Luc, ARPE-19 cells, read-out: EC50
[9] = cell-associated VZV-ORF57-ΔTK, ARPE-19 cells, read-out: EC50
[10] = cell-associated VZV-ORF57-ΔTS, ARPE-19 cells, read-out: EC50
[11] = cell-associated VZV-ORF57-ΔTKTS, ARPE-19 cells, read-out: EC50

Row | Compound | SI (CC50/EC50) (VZV-ORF57-Luc [1]) | EC50 (VZV-ORF57-Luc [2]) | SI (CC50/EC50) (VZV-ORF57-Luc [1]; [5]) | CC50 at 72 h [3] | also measured
1 | CC(C)OC(=O)C(C)NP(=O)(OC[C@H]1OC[C@@H](n2cc(/C=C/Br)c(=O)[nH]c2=O)O1)Oc1ccccc1 (stereo in doubt) [Isopropyl ((((2S,4S)-4-(5-((E)-2-Bromovinyl)-2,4-dioxo-3,4-dihydropyrimidin-1(2H)-yl)-1,3-dioxolan-2-yl)methoxy)(phenoxy)phosphoryl)-L-alaninate] | >206 | 1690 nM | – | – | CC50 (in vitro): > 100000 nM
2 | CC(C)OC(=O)C(Cc1ccccc1)NP(=O)(OC[C@H]1OC[C@@H](n2cc(/C=C/Br)c(=O)[nH]c2=O)O1)Oc1ccccc1 (stereo in doubt) [Isopropyl ((((2S,4S)-4-(5-((E)-2-Bromovinyl)-2,4-dioxo-3,4-dihydropyrimidin-1(2H)-yl)-1,3-dioxolan-2-yl)methoxy)(phenoxy)phosphoryl)-L-phenylalaninate] | 61 | 1530 nM | 61 | – | CC50 at 72 h (in vitro): 93700 nM
3 | CC(C)(N)C(=O)OC[C@H]1OC[C@@H](n2cc(/C=C/Br)c(=O)[nH]c2=O)O1.Cl [L-BHDU-2-aminoisobutyric acid (24), L-BHDU-5′-O-2-aminoisobutyric Acid Ester Hydrochloride] | >2597 | 38.5 nM | >2597 | > 100000 nM | –
4 | CC(C)[C@H](N)C(=O)OC[C@H]1OC[C@@H](n2cc(/C=C/Br)c(=O)[nH]c2=O)O1.Cl [L-BHDU-D-valine (18), L-BHDU-5′-O-D-valyl Ester Hydrochloride] | >709 | 140 nM | >709 | > 100000 nM | EC50 (VZV-ORF57-Luc [1]): 141 nM
5 | C[C@@H](N)C(=O)OC[C@H]1OC[C@@H](n2cc(/C=C/Br)c(=O)[nH]c2=O)O1.Cl [L-BHDU-L-alanine (15), L-BHDU-5′-O-L-alanyl Ester Hydrochloride] | >2959 | 33.8 nM | >2959 | > 100000 nM | –
6 | Cl.NC(=O)CC[C@H](N)C(=O)OC[C@H]1OC[C@@H](n2cc(/C=C/Br)c(=O)[nH]c2=O)O1 [L-BHDU-L-glutamine (23), L-BHDU-5′-O-L-glutamine Ester Hydrochloride] | >794 | 126 nM | >794 | > 100000 nM | –
7 | CC[C@H](C)[C@H](N)C(=O)OC[C@H]1OC[C@@H](n2cc(/C=C/Br)c(=O)[nH]c2=O)O1.Cl [L-BHDU-L-isoleucine (21), L-BHDU-5′-O-L-isoleucine Ester Hydrochloride] | >1520 | 65.8 nM | >1520 | > 100000 nM | –
8 | CC(C)C[C@H](N)C(=O)OC[C@H]1OC[C@@H](n2cc(/C=C/Br)c(=O)[nH]c2=O)O1.Cl [L-BHDU-L-leucine (20), L-BHDU-5′-O-L-leucine Ester Hydrochloride] | >2415 | 41.4 nM | >2415 | > 100000 nM | –
9 | Cl.NCCCC[C@H](N)C(=O)OC[C@H]1OC[C@@H](n2cc(/C=C/Br)c(=O)[nH]c2=O)O1 [L-BHDU-L-lysine (25), L-BHDU-5′-O-L-lysine Ester Hydrochloride] | – | 40.3 nM | >2481 | > 100000 nM | –
10 | Cl.N[C@H](Cc1ccccc1)C(=O)OC[C@H]1OC[C@@H](n2cc(/C=C/Br)c(=O)[nH]c2=O)O1 [L-BHDU-L-phenylalanine (16), L-BHDU-5′-O-L-phenylalanyl Ester Hydrochloride] | >3484 | 28 nM | >3484 | > 100000 nM | EC50 (VZV-ORF57-Luc [1]): 28.7 nM; SI (CC50/EC50) (VZV-ORF57-Luc [1]; selectivity index = CC50/EC50, ARPE-19 cells, listed as 16): > 3484
11 | Cl.O=C(OC[C@H]1OC[C@@H](n2cc(/C=C/Br)c(=O)[nH]c2=O)O1)[C@@H]1CCCN1 [L-BHDU-L-proline (22), L-BHDU-5′-O-L-proline Ester Hydrochloride] | >1934 | 51.7 nM | >1934 | > 100000 nM | –
12 | Cl.N[C@@H](Cc1c[nH]c2ccccc12)C(=O)OC[C@H]1OC[C@@H](n2cc(/C=C/Br)c(=O)[nH]c2=O)O1 [L-BHDU-L-tryptophan (19), L-BHDU-5′-O-L-tryptophan Ester Hydrochloride] | >1550 | 64.5 nM | >1550 | > 100000 nM | –
13 | Cl.N[C@@H](Cc1ccc(O)cc1)C(=O)OC[C@H]1OC[C@@H](n2cc(/C=C/Br)c(=O)[nH]c2=O)O1 [L-BHDU-L-tyrosine (26), L-BHDU-5′-O-L-tyrosine Ester Hydrochloride] | >826 | 121 nM | >826 | > 100000 nM | –
14 | Cl.NCC(=O)OC[C@H]1OC[C@@H](n2cc(/C=C/Br)c(=O)[nH]c2=O)O1 [L-BHDU-glycine (14), L-BHDU-5′-O-glycyl Ester Hydrochloride] | >2132 | 46.9 nM | >2132 | > 100000 nM | –
15 | CC(C)[C@H](N)C(=O)OCCOCn1cnc2c(=O)[nH]c(N)nc21 [VACV, valacyclovir] | – | – | – | – | effect on VZV spread (VZV; 120 mg/kg/day, SCID-hu mouse): no effect; effect on VZV replication (VZV; SCID-hu mice): did not affect VZV replication
16 | Nc1nc2c(ncn2COCCO)c(=O)[nH]1 [acyclovir (ACV), acyclovir, reference compound] | – | – | – | > 100000 nM | –
17 | Nc1ccn(C[C@@H](CO)OCP(=O)(O)O)c(=O)n1 [cidofovir (CDV), cidofovir, reference compound] | – | 482 nM | >208 | > 100000 nM | EC50 (VZV-ORF57-Luc [4]; [6]): 370 nM; EC50 (VZV-ORF57-ΔTK; [6]): 420 nM; activity against VZV-ORF57-ΔTK (in words) (VZV-ORF57-ΔTK; [7]): effective; EC50 (VZV-ORF57-ΔTS; [6]): 10 nM; EC50 (VZV-ORF57-ΔTKTS; [6]): 1050 nM; activity against VZV-ORF57-ΔTKTS (in words) (VZV-ORF57-ΔTKTS; [7]): effective
18 | CC(C)(C)OC(=O)N[C@@H](Cc1ccc(O)cc1)C(=O)O [compound 27] | >2481 | – | – | – | –
19 | Bis(POC) Prodrug of L-BHDU-MP [POC-L-BHDU-MP (47)] | >2915 | – | >2915 | – | EC50 (VZV-ORF57-Luc [4]; [8]): 40 nM; EC50 (VZV-ORF57-ΔTK; [9]): > 2000 nM; EC50 (VZV-ORF57-ΔTS; [10]): 8.4 nM; EC50 (VZV-ORF57-ΔTKTS; [11]): > 2000 nM; EC50 (VZV-ORF57-Luc [1]): 34.3 nM; EC50 (VZV-ORF57-Luc [1]; listed as POC-L-BHDU-MP): 34 nM; SI (CC50/EC50) (VZV-ORF57-Luc [1]; selectivity index = CC50/EC50, ARPE-19 cells, listed as POC-L-BHDU-MP): > 2915; CC50 (ARPE-19 cells): > 100000 nM
20 | L-BHDU-5′-[(2-hexadecyloxyethyl)phosphate] [HDP-L-BHDU-MP (39)] | 35 | – | 35 | – | EC50 (VZV-ORF57-Luc [1]): 526 nM; EC50 (VZV-ORF57-Luc [1]; listed as 39): 530 nM; CC50 (ARPE-19 cells): 18500 nM
21 | L-BHDU-5′-[(2-octadecyloxyethyl)phosphate] [ODE-L-BHDU-MP (38)] | 339 | – | 339 | – | fold more potent compared to ACV (VZV-ORF57-Luc [4]; cell-associated VZV-ORF57-Luc): 9 fold; EC50 (VZV-ORF57-Luc [4]; [8]): 820 nM; EC50 (VZV-ORF57-ΔTK; [9]): > 2000 nM; EC50 (VZV-ORF57-ΔTS; [10]): 0.8 nM; EC50 (VZV-ORF57-ΔTKTS; [11]): > 2000 nM; EC50 (VZV-ORF57-Luc [1]): 100 nM; CC50 (ARPE-19 cells): 33900 nM
